Data from the supplement of paper PMC11208160.
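Wherever recombinant UMI read abundance after kanamycin selection (control-corrected) is given: IS621 bridge recombinase in Escherichia coli cells against a fixed T5 target plasmid.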
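Wherever recombinant barcode read abundance after kanamycin selection (control-corrected) is given: IS621 recombinase and bridge RNA in Escherichia coli cells.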

Experiment: recombinant barcode read abundance after kanamycin selection (control-corrected) (log10(CPM+1)); higher = more efficient recombination; sequences stand for … in AGTGCAGAGAAAATCGGCCAGTTTTCTCTGCCTGCAGTCCGCATGCCGT…AGATTTATGCAGCGGACTGCCTTTCTCCCAAAGTGATAAACCGGACAGTATCATGGACCGGTTTTCCCGGTAATCCGTATTTGCAAGGTTGGTTTCACT; site = the 11-nt target
Procedure: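 Pooled E. coli target-specificity screen for the IS621 bridge recombinase. Each library plasmid pairs an 11-nt target (CT core) with a bridge RNA whose target-binding loop (9-nt LTG + 4-nt RTG) is reprogrammed; the rest of the 177-nt WT IS621 bridge RNA scaffold is fixed. The plasmid is co-electroporated with a WT donor plasmid; recombinase is induced with 0.1 mM IPTG and recombinants are selected on kanamycin. Recombinant barcodes are sequenced, converted to CPM, averaged over two biological replicates and corrected by the unselected control CPM. Molecule = full bridge RNA written as DNA: LTG = specificity nt 1-9, RTG = reverse complement of specificity nt 8-11, in the WT scaffold.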
With “AAAAGTCCTTGGGTTCTAACCTGTTGCCT (site AAAAGTCCTAG)” the “recombinant barcode read abundance (log10)” value was 1.11.
In the case of “AAAAGTCCTTGGGTTCTAACCTGTTGCCT (site AAGAGTCCTAC)”, the “recombinant barcode read abundance (log10)” value is reported as 0.0517.
With “AAAATGCCTTGGGTTCTAACCTGTTGCCT (site AAAATGCCTAG)” the “recombinant barcode read abundance (log10)” value was 0.359.
In the case of “AAAATGCCTTGGGTTCTAACCTGTTGCCT (site CAAATGTCTAG)”, the “recombinant barcode read abundance (log10)” value is reported as 0.0967.
For “AAACGACCTTGGGTTCTAACCTGTTGCCT (site AAACGACCTAG)”, the “recombinant barcode read abundance (log10)” value was 1.59.
In the case of “AAACGACCTTGGGTTCTAACCTGTTGCCT (site CAACGACCTAG)”, the “recombinant barcode read abundance (log10)” value is reported as 0.291.
For “AAACGACCTTGGGTTCTAACCTGTTGCCT (site GAACGACCTAG)”, the “recombinant barcode read abundance (log10)” value was 0.0625.
For “AAACGACCTTGGGTTCTAACCTGTTGCCT (site TAACGACCTAG)”, the “recombinant barcode read abundance (log10)” value was 0.801.
In the case of “AAAGCTACTTGGGTTCTAACCTGTTGCTA (site AAAGCTACTTA)”, the “recombinant barcode read abundance (log10)” value is reported as 0.86.
In the case of “AAAGCTACTTGGGTTCTAACCTGTTGCTA (site TGGTAGTCTAC)”, the “recombinant barcode read abundance (log10)” value is reported as 0.0812.
In the case of “AAAGTGTCTTGGGTTCTAACCTGTTGCCT (site AAAGTGTCTAG)”, the “recombinant barcode read abundance (log10)” value is reported as 2.97.
For “AAAGTGTCTTGGGTTCTAACCTGTTGCCT (site AACGTGTCTAG)”, the “recombinant barcode read abundance (log10)” value was 0.373.
For “AAAGTGTCTTGGGTTCTAACCTGTTGCCT (site AAGGTGTCTAG)”, the “recombinant barcode read abundance (log10)” value was 0.489.
With “AAAGTGTCTTGGGTTCTAACCTGTTGCCT (site AATGTGTCTAG)” the “recombinant barcode read abundance (log10)” value was 0.65.
In the case of “AAATCGTCTTGGGTTCTAACCTGTTGCCT (site AAATCGTCTAG)”, the “recombinant barcode read abundance (log10)” value is reported as 0.817.
For “AAATCGTCTTGGGTTCTAACCTGTTGCCT (site AACACGTCTAG)”, the “recombinant barcode read abundance (log10)” value was 0.176.
For “AACAGCTCTTGGGTTCTAACCTGTTGCCT (site AACAGCTCTAG)”, the “recombinant barcode read abundance (log10)” value was 1.75.
For “AACAGCTCTTGGGTTCTAACCTGTTGCCT (site AACAGTTCTAG)”, the “recombinant barcode read abundance (log10)” value was 0.15.
For “AACAGTGCTTGGGTTCTAACCTGTTGCCT (site AACAATGCTAG)”, the “recombinant barcode read abundance (log10)” value was 0.248.
With “AACAGTGCTTGGGTTCTAACCTGTTGCCT (site AACACTGCTAG)” the “recombinant barcode read abundance (log10)” value was 0.219.
For “AACAGTGCTTGGGTTCTAACCTGTTGCCT (site AACAGTGCTAG)”, the “recombinant barcode read abundance (log10)” value was 0.73.
In the case of “AACAGTGCTTGGGTTCTAACCTGTTGCCT (site AACATTGCTAG)”, the “recombinant barcode read abundance (log10)” value is reported as 0.0547.

Experiment: recombinant UMI read abundance after kanamycin selection (control-corrected) (log10(CPM+1)); higher = more efficient recombination; extreme values may be limits of the assay; sequences stand for … in AGTGCAGAGAAAATCGGCCAGTTTTCTCTGCCTGCAGTCCGCATGCCGTGGGACCCCTTGGGTTCTAACCTGTTGCCTAGATTTATGCAGCGGACTGCCTTTCTCCCAAAGTGATAAACCGG…AGGTTGGTTTCACT; site = the 11-nt donor
Outline: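 Sequenced counts of recombinant UMIs were turned into CPM, averaged across replicates and scaled with control-derived factors. The reported figure is log10(CPM+1). Those UMIs, each 12 nt long, tagged donor and donor-binding-loop pairs on a plasmid with a promoterless kanamycin gene, screened as a pool in Escherichia coli with IPTG (0.07 mM) plus kanamycin or without selection.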
In the case of “TTGGCTGCATGGACCGGTTTTCCCGGTAATCCGTATTTGTG (site TTGGCTGCTCA)”, the “recombinant UMI read abundance (log10)” value is reported as 0.00853.
For “TTGGCTGCATGGACCGGTTTTCCCGGTAATCCGTATTTGTG (site TTTGCTGCTCA)”, the “recombinant UMI read abundance (log10)” value was 0.0121.
In the case of “TTGGTAACATGGACCGGTTTTCCCGGTAATCCGTATTTGAG (site TTGGTAACTCT)”, the “recombinant UMI read abundance (log10)” value is reported as 0.734.
With “TTGGTACCATGGACCGGTTTTCCCGGTAATCCGTATTTGCA (site TTGGTACCTTG)” the “recombinant UMI read abundance (log10)” value was 0.00424.
With “TTGGTTCCATGGACCGGTTTTCCCGGTAATCCGTATTTGTG (site TTGGTTCCTCA)” the “recombinant UMI read abundance (log10)” value was 0.0354.
With “TTGTAAGCATGGACCGGTTTTCCCGGTAATCCGTATTTGCA (site TTGTAAGCTTG)” the “recombinant UMI read abundance (log10)” value was 1.17.
With “TTGTCGACATGGACCGGTTTTCCCGGTAATCCGTATTTGTC (site TTGTCGACTGA)” the “recombinant UMI read abundance (log10)” value was 0.433.
For “TTGTGCTCATGGACCGGTTTTCCCGGTAATCCGTATTTGGG (site TTGTGCTCTCC)”, the “recombinant UMI read abundance (log10)” value was 0.0159.
In the case of “TTTAGCCCATGGACCGGTTTTCCCGGTAATCCGTATTTGCT (site TTTAGCCCTAG)”, the “recombinant UMI read abundance (log10)” value is reported as 0.
With “TTTATAGCATGGACCGGTTTTCCCGGTAATCCGTATTTGCG (site TTTATAGCTCG)” the “recombinant UMI read abundance (log10)” value was 0.232.
In the case of “TTTCACACATGGACCGGTTTTCCCGGTAATCCGTATTTGGA (site TTTCACACTTC)”, the “recombinant UMI read abundance (log10)” value is reported as 0.0104.
For “TTTCACGCATGGACCGGTTTTCCCGGTAATCCGTATTTGGT (site TTTCACGCTAC)”, the “recombinant UMI read abundance (log10)” value was 0.0228.
In the case of “TTTCCTCCATGGACCGGTTTTCCCGGTAATCCGTATTTGCG (site TTTCCTCCTCG)”, the “recombinant UMI read abundance (log10)” value is reported as 0.0281.
With “TTTCGAGCATGGACCGGTTTTCCCGGTAATCCGTATTTGCA (site ATTCGAGCTTG)” the “recombinant UMI read abundance (log10)” value was 0.411.
With “TTTCGAGCATGGACCGGTTTTCCCGGTAATCCGTATTTGCA (site CTTCGAGCTTG)” the “recombinant UMI read abundance (log10)” value was 0.13.
In the case of “TTTCGAGCATGGACCGGTTTTCCCGGTAATCCGTATTTGCA (site GTTCGAGCTTG)”, the “recombinant UMI read abundance (log10)” value is reported as 0.969.
For “TTTCGAGCATGGACCGGTTTTCCCGGTAATCCGTATTTGCA (site TTTCGAGCTTG)”, the “recombinant UMI read abundance (log10)” value was 1.31.
For “TTTCGCACATGGACCGGTTTTCCCGGTAATCCGTATTTGCG (site TTTCGCACTCG)”, the “recombinant UMI read abundance (log10)” value was 0.00398.
For “TTTCGCACATGGACCGGTTTTCCCGGTAATCCGTATTTGTC (site TTTCGCACTGA)”, the “recombinant UMI read abundance (log10)” value was 0.308.
With “TTTCGCCCATGGACCGGTTTTCCCGGTAATCCGTATTTGTG (site TTTCGCCCTCA)” the “recombinant UMI read abundance (log10)” value was 0.0225.
With “TTTGAATCATGGACCGGTTTTCCCGGTAATCCGTATTTGAC (site TTTGAATCTGT)” the “recombinant UMI read abundance (log10)” value was 0.
In the case of “TTTGAGACATGGACCGGTTTTCCCGGTAATCCGTATTTGGT (site ATTGAGACTAC)”, the “recombinant UMI read abundance (log10)” value is reported as 0.0113.
With “TTTGAGACATGGACCGGTTTTCCCGGTAATCCGTATTTGGT (site CTTGAGACTAC)” the “recombinant UMI read abundance (log10)” value was 0.0146.
With “TTTGAGACATGGACCGGTTTTCCCGGTAATCCGTATTTGGT (site GTTGAGACTAC)” the “recombinant UMI read abundance (log10)” value was 0.0113.
In the case of “TTTGAGACATGGACCGGTTTTCCCGGTAATCCGTATTTGGT (site TTTGAGACTAC)”, the “recombinant UMI read abundance (log10)” value is reported as 0.511.
For “TTTGCGGCATGGACCGGTTTTCCCGGTAATCCGTATTTGCC (site TTTGCGGCTAG)”, the “recombinant UMI read abundance (log10)” value was 0.0224.
For “TTTGCGGCATGGACCGGTTTTCCCGGTAATCCGTATTTGCC (site TTTGCGGCTCG)”, the “recombinant UMI read abundance (log10)” value was 0.0088.
In the case of “TTTGCGGCATGGACCGGTTTTCCCGGTAATCCGTATTTGCC (site TTTGCGGCTGG)”, the “recombinant UMI read abundance (log10)” value is reported as 0.
In the case of “TTTGCGGCATGGACCGGTTTTCCCGGTAATCCGTATTTGCC (site TTTGCGGCTTG)”, the “recombinant UMI read abundance (log10)” value is reported as 0.0109.
In the case of “TTTGCGGCATGGACCGGTTTTCCCGGTAATCCGTATTTGCG (site TTTGCGGCTAG)”, the “recombinant UMI read abundance (log10)” value is reported as 0.00371.
For “TTTGCGGCATGGACCGGTTTTCCCGGTAATCCGTATTTGCG (site TTTGCGGCTCG)”, the “recombinant UMI read abundance (log10)” value was 0.0191.
For “TTTGCGGCATGGACCGGTTTTCCCGGTAATCCGTATTTGCG (site TTTGCGGCTGG)”, the “recombinant UMI read abundance (log10)” value was 0.
In the case of “TTTGCGGCATGGACCGGTTTTCCCGGTAATCCGTATTTGCG (site TTTGCGGCTTG)”, the “recombinant UMI read abundance (log10)” value is reported as 0.0091.
For “TTTGCTGCATGGACCGGTTTTCCCGGTAATCCGTATTTGCT (site TTTGCAGCTAG)”, the “recombinant UMI read abundance (log10)” value was 0.
In the case of “TTTGCTGCATGGACCGGTTTTCCCGGTAATCCGTATTTGCT (site TTTGCCGCTAG)”, the “recombinant UMI read abundance (log10)” value is reported as 0.0567.
For “TTTGCTGCATGGACCGGTTTTCCCGGTAATCCGTATTTGCT (site TTTGCGGCTAG)”, the “recombinant UMI read abundance (log10)” value was 0.
With “TTTGCTGCATGGACCGGTTTTCCCGGTAATCCGTATTTGCT (site TTTGCTGCTAG)” the “recombinant UMI read abundance (log10)” value was 0.00917.
For “TTTGTCACATGGACCGGTTTTCCCGGTAATCCGTATTTGGA (site TTTGTCACTTC)”, the “recombinant UMI read abundance (log10)” value was 0.187.
